Legend:
[1] = system: Faecalibacterium prausnitzii (F. prau); experiment: in vitro stool fermentation, quantitative PCR specifically targeting F. prau; format: cell-based; details: stool inoculum in minimal media, anaerobic, 37 degrees Celsius
Description: (§1) Stool samples were collected from a healthy adult donor under human study protocol. Upon the reception of the stool samples, small aliquots were prepared with storage buffer (PBS and 10% glycerol) and were stored at −80 degrees Celsius before use. For each experiment, 250 μL of stool aliquot was inoculated in a 10 mL Hungate tube filled with a minimal bacteria culture media under a strict anaerobic condition (Oxygen <3 ppm) inside of an anaerobic chamber. Different nutrients or nutrient combinations, shown in Table 1, were added to the culture media at time 0 and the tubes were incubated at 37 degrees Celsius for 24 or 48 hours. The growth of Faecalibacterium prausnitzii (F. prau) was examined by two methods: quantitative PCR specifically targeting F. prau and 16S microbial rRNA gene sequencing.
First, we examined the absolute quantity of F. prau in the community after 24 or 48 hours (FIGS. 6A and 6B).

[2] = system: Faecalibacterium ASVs (ASV6); experiment: in vitro stool fermentation, 16S microbial rRNA gene sequencing of Faecalibacterium ASVs; format: cell-based, Faecalibacterium prausnitzii
Description: as §1
F. prau is heterogenic and genetically diverse. Thus, in this next experiment, we examined if nutrient or nutrient combinations favor specific F. prau to grow in a mixed community.

Substance: inulin
- absolute quantity of F. prau in the community versus control ([1]; 24 hours, FIG. 6A): at least twice as much as control
- absolute quantity of F. prau in the community ([1]; 48 hours, FIG. 6B): able to maintain a high amount of F. prau
- response of Faecalibacterium ASV1, 6, 9, 12 and 13 ([2]; 14 genetically different Faecalibacterium found, time not stated): responded positively
- response of F. prau ASV6 (figure legend) ([2]; samples collected after 24 hours and after 48 hours, FIG. 7): responded

From patent US20250316361A1, “SYSTEMS AND METHODS FOR ESTIMATING, FROM FOOD FREQUENCY QUESTIONNAIRE BASED NUTRIENTS INTAKE DATA, THE RELATIVE AMOUNTS OF FAECALIBACTERIUM PRAUSNITZII (FPRAU) IN THE GUT MICROBIOME ECOSYSTEM AND ASSOCIATED RECOMMENDATIONS TO IMPROVE FAECALIBACTERIUM PRAUSNITZII” (SOCIETE DES PRODUITS NESTLE S.A., priority 2021, published 2025)
